US4076931A, “Derivatives of an antibiotic XK-62-2 and the process for the production thereof” (Abbott Laboratories, priority 1974, dated 1978)
≈ marks a conversion by molar mass, not a printed value. Where two headings read alike, the source gives them in different places.

How the values were obtained:
Format in all cases: cell-based
Escherichia coli KY 8327 = assay: Minimum inhibitory concentration by agar dilution method, Escherichia coli KY 8327; details: for antibacterial activity: Escherichia coli KY 8327, resistant to kanamycins and gentamicins, in words; for MIC: KY8327
Source text: (§1) Table 1 illustrates minimum inhibitory concentration of 1-N-(α-hydroxy-δ-aminovaleryl)XK-62-2 and 1-N-(α-hydroxy-ε- aminocaproyl)XK-62-2 against various Gram-negative and Gram-positive bacteria determined by agar dilution method.
(§2) In the above Table 1, Escherichia coli KY 8327 and KY 8348 respectively produce adenyltransferase and acetyltransferase intracellularly; the former enzyme inactivates kanamycins and gentamicins by adenylation, and the latter inactivates gentamicins by acetylation.

[1] = test system: Escherichia coli strains having R factors; assay: Antibacterial activity against Escherichia coli strains having R factors; details: resistant to known aminoglycoside antibiotics, in words
Source text: as §1

Escherichia coli ATCC 26 = assay: Minimum inhibitory concentration by agar dilution method, Escherichia coli ATCC 26
Source text: as §1

[2] = test system: Staphylococcus aureus ATCC 6538P; assay: Minimum inhibitory concentration by agar dilution method, Staphylococcus aureus ATCC 6538P; details: for MIC: ATCC6538P
Source text: as §1

[3] = test system: Pseudomonas aeruginosa BMH No. 1; assay: Minimum inhibitory concentration by agar dilution method, Pseudomonas aeruginosa BMH No. 1; details: for MIC: BMHNO.1
Source text: as §1

[4] = test system: Shigella sonnel ATCC 9290; assay: Minimum inhibitory concentration by agar dilution method, Shigella sonnel ATCC 9290; details: for MIC: Shigella, ATCC9290, read-out: Minimum Inhibitory Concentration
Source text: as §1

[5] = test system: Bacillus subtilis No. 10707; assay: Minimum inhibitory concentration by agar dilution method, Bacillus subtilis No. 10707
Source text: as §1

Escherichia coli KY 8348 = assay: Minimum inhibitory concentration by agar dilution method, Escherichia coli KY 8348; details: for antibacterial activity: Escherichia coli KY 8348, resistant to known aminoglycoside antibiotics, in words; for MIC: KY8348
Source text: as §1, §2

[6] = test system: Proteus vulgaris ATCC 6897; assay: Minimum inhibitory concentration by agar dilution method, Proteus vulgaris ATCC 6897
Source text: as §1

[7] = test system: Salmonella typhosa ATCC 9922; assay: Minimum inhibitory concentration by agar dilution method, Salmonella typhosa ATCC 9922; details: for MIC: Salmonella enterica, read-out: Minimum Inhibitory Concentration
Source text: as §1

[8] = test system: Klebsiella penumoniae ATCC 10031; assay: Minimum inhibitory concentration by agar dilution method, Klebsiella penumoniae ATCC 10031; details: for MIC: ATCC10031
Source text: as §1

[9] = Escherichia coli KY 8327 (produces adenyltransferase), agar dilution method
[10] = Escherichia coli KY 8348 (produces acetyltransferase), agar dilution method

Row | Compound | antibacterial activity (Escherichia coli KY 8327) | antibacterial activity [1] | antibacterial activity (Escherichia coli KY 8348) | MIC (Escherichia coli KY 8327; [9]) [µg/mL] | MIC [2] [µg/mL] | MIC [3] [µg/mL] | MIC [4] [µg/mL] | MIC [5] [µg/mL] | MIC (Escherichia coli KY 8348; [10]) [µg/mL] | MIC [7] [µg/mL] | MIC [8] [µg/mL] | other results
1 | 1-N-[L-(-)-α-hydroxy-ε-aminocaproyl]XK-62-2 | very strong antibacterial activity | strong antibacterial activity | very strong antibacterial activity |  |  |  |  |  |  |  |  | Minimum Inhibitory Concentration (Escherichia coli KY 8327; [9]): 0.013 µg/mL; Minimum Inhibitory Concentration (Escherichia coli ATCC 26; Escherichia coli ATCC 26, agar dilution method): 0.13 µg/mL; Minimum Inhibitory Concentration [2]: 0.033 µg/mL; Minimum Inhibitory Concentration [3]: 4.17 µg/mL; Minimum Inhibitory Concentration ([4]; Shigella sonnel ATCC 9290, agar dilution method): 0.26 µg/mL; Minimum Inhibitory Concentration [5]: 0.008 µg/mL; Minimum Inhibitory Concentration (Escherichia coli KY 8348; [10]): 0.065 µg/mL; Minimum Inhibitory Concentration ([6]; Proteus vulgaris ATCC 6897, agar dilution method): 0.26 µg/mL; Minimum Inhibitory Concentration ([7]; Salmonella typhosa ATCC 9922, agar dilution method): 0.065 µg/mL; Minimum Inhibitory Concentration [8]: 0.033 µg/mL
2 | CNC[C@@H]1CC[C@@H](N)[C@@H](O[C@H]2[C@H](O)[C@@H](O[C@H]3OC[C@](C)(O)[C@H](NC)[C@H]3O)[C@H](N)C[C@@H]2N)O1 [XK-62-2] |  |  |  | 1.04 (≈ 2.24 µM) | < 0.004 | 0.13 (≈ 0.28 µM) | 0.033 (≈ 0.0712 µM) | < 0.004 | 1.04 (≈ 2.24 µM) | 0.008 (≈ 0.0173 µM) | < 0.004 | MIC (Escherichia coli ATCC 26; Escherichia coli, ATCC26, read-out: Minimum Inhibitory Concentration): 0.016 µg/mL (≈ 0.0345 µM); MIC ([6]; Proteus vulgaris, ATCC6897, read-out: Minimum Inhibitory Concentration): 0.016 µg/mL (≈ 0.0345 µM)
3 | CNC[C@@H]1CC[C@@H](N)[C@@H](O[C@H]2[C@H](O)[C@@H](O[C@H]3OC[C@](C)(O)[C@H](NC)[C@H]3O)[C@H](NC(=O)[C@@H](O)CCCN)C[C@@H]2N)O1 [1-N-[L-(-)-α-hydroxy-δ-aminovaleryl]XK-62-2] | very strong antibacterial activity | strong antibacterial activity | very strong antibacterial activity | 0.065 (≈ 0.112 µM) | 0.008 (≈ 0.0138 µM) | 0.52 (≈ 0.899 µM) | 0.065 (≈ 0.112 µM) | < 0.004 | 0.033 (≈ 0.057 µM) | 0.016 (≈ 0.0276 µM) | 0.008 (≈ 0.0138 µM) | MIC (Escherichia coli ATCC 26; ATCC26, Escherichia coli ATCC 26, agar dilution method, read-out: Minimum Inhibitory Concentration): 0.033 µg/mL (≈ 0.057 µM); MIC ([6]; ATCC6897, Proteus vulgaris ATCC 6897, agar dilution method, read-out: Minimum Inhibitory Concentration): 0.065 µg/mL (≈ 0.112 µM)
